“Also recorded” adds a separate entry of the source.
Key:
[1] = system: caspases 2, 8, 9, and 3; assay: Caspase activities (AFC substrates), Jurkat; assay type: cell-based; conditions: Jurkat cells, within 6 hours
Experimental: (§1) Activities of caspases 8, 2, 9, and 3 were determined in lysates of [Os3(CO)10(μ-H)(μ-S)C9H6N]-treated (A) Jurkat and (B) HL 60 cells and shown as fold increase over untreated cells.
(§2) Caspases 2, 3, 8, and 9 activities were assayed by using AFC-conjugated substrates supplied by Bio-Rad. Cells (1×10^6 cells/ml) were incubated with the drugs over a time course, washed twice with 1×PBS, resuspended in 50 μl of chilled cell lysis buffer (provided by the supplier), and incubated on ice for 10 min. 50 μl of 2× reaction buffer (10 mM HEPES, 2 mM EDTA, 10 mM KCl, 1.5 mM MgCl2, 10 mM dithiothreitol) and […] of the fluorogenic caspase-specific (VDVAD-AFC for caspase 2, DEVD-AFC for caspase 3, IETD-AFC for caspase 8, and LEHDAFC for caspase 9) were added to each sample and incubated at 37° C. for 1 h. Protease activity was determined by the relative fluorescence intensity at 505 nm following excitation at 400 nm using a spectrofluorimeter (Luminescence Spectrometer LS50B, PerkinElmer Life Sciences, Buckinghamshire, United Kingdom).

[2] = system: Akt/PKB; assay: Western blot of total Akt/PKB and Akt/PKB phosphorylation (Ser473); assay type: cell-based, human
Experimental: The capability of the varying doses of [Os3(CO)10(μ-H)(μ-S)C9H6N] to dephosphorylate and deactivate Akt was shown by Western blot. HL 60 cells (2×10^6) were incubated with varying doses of [Os3(CO)10(μ-H)(μ-S)C9H6N] (12.5 and 25 μM) for 2, 4, and 6 hours and cell lysates were obtained for Western blot analysis of the Akt phosphorylation status.
HL-60 cells (2×10^6) were plated in a 12 well plate followed by exposure to the drug. Cells were harvested, washed once with PBS, and then lysed with cell lysis buffer [150 mmol/L NaCl, Tris-HCl (pH 7.4), 1% NP40]. Cell lysate (200 μg) was then electrophoresed on an 8% acrylamide gel. Antibodies were used to probe for total Akt and phosphorylated Akt/PKB at the Ser473 position (Cell Signaling, Beverly, Mass.). Protein blots were probed with anti β-actin (Sigma-Aldrich, St. Louis, Mo.) to check for equal protein loading).

[3] = system: Jurkat Neo and Jurkat BCL2 cells; assay: DNA fragmentation by PI, Jurkat Neo and Jurkat BCL2; assay type: cell-based; conditions: 12.5 and 25 μM, 18 hours; for DNA fragmentation / apoptosis with Bcl-2 overexpression: BCl2 overexpressing jurkat cells
Experimental: Jurkat Neo and Jurkat BCL2 cells were treated with 12.5 and 25 μM of [Os3(CO)10(μ-H)(μ-S)C9H6N] for 18 hours, immediately fixed in ethanol and stained with PI for DNA content analysis. Sub-G1 population indicates subdiploid DNA content indicative of apoptotic. The DNA fragmentation induced by [Os3(CO)10(μ-H)(μ-S)C9H6N] is inhibited in BCl2 overexpressing jurkat cells. Data shown are representative of at least three independent experiments.
For cellular DNA content determination, 1×10^6 cells/ml from each cell line were treated with [Os3(CO)10(μ-H)(μ-S)C9H6N]. After treatment, cells were washed twice with 1×PBS+1 FBS. Sample preparation and staining with PI for DNA content were performed as described elsewhere (32). Briefly, cell pellets were resuspended in 0.5 ml of 1×PBS+1% FBS and immediately fixed by adding 5 ml of 70% ethanol while vortexing to avoid clumping.
Fixed cells were left at 4° C. for 30 min, centrifuged at 1000×g for 5 min and washed once with 1×PBS+1% FBS. Cell pellets were then suspended in 0.5 ml of PI/RNAse. A solution prepared by adding 1/50 volume of PI stock and 1/40 volume of RNAse. A stock to 1×PBS+1% FBS and incubated for 30 min at 37° C. Stained cells were analyzed by flow cytometry with the excitation set at 488 nm and the emission set at 610 nm (red).

[4] = system: Bax; assay: Western blot of Bax sub-cellular localization; assay type: cell-based, human; conditions: HL60 cells, 12.5 and 25 μM, 12 hours
Experimental: (§3) FIG. 12 illustrates that [Os3(CO)10(μ-H)(2-S)C9H6N] induces apoptosis through the mitochondrial pathway. HL60 cells (30×10^6) were treated with 12.5 (A) and 25 μM (B) of [Os3(CO)10(μ-H)(μ-S)C9H6N] treated for 12 hours and cytosolic and mitochondria fractions were subjected to SDS-PAGE electrophoresis, transferred to PVDF membrane, and probe with anti-Cyt.C and anti-Bax antibodies (C). Anti-βactin antibody was used to assess equal loading of samples.
For analysis of poly(ADP-ribose) polymerase cleavage, lysates from 2×10^6 cells were prepared in sample buffer [50 mmol/L Tris/HCl (pH 6.8), 6 mol/L urea, 3% SDS, 0.003% Bromphenol Blue, and 6% β-mercaptoethanol] and subjected to Western blot analysis using anti-poly(ADP-ribose) polymerase (clone C-2-10, PharMingen) as described (Pervaiz et al., 199, supra). For Western blot analysis of Bax, cells (2×10^6) were lysed by adding […] of chilled 1× radioimmunoprecipitation assay buffer lysis buffer, and 50 μg of protein were subjected to 15% PAGE and transferred to polyvinylidene difluoride as above. Alternatively for analysis of Bax dimerization/multimerization, cell lysates were subjected to 10% native gel electrophoresis. […] Chemiluminescence was detected as described above.

[5] = system: jurkat cells; assay: Intracellular superoxide, lucigenin chemiluminescence, Jurkat; assay type: cell-based; conditions: 12.5 and 25 μM, 2 h and 4 h (FIG. 5A)
Experimental: (§4) (A) Jurkat cells and (B) HL-60 cells (2×10^6) were incubated with 12.5 and 25 μM [Os3(CO)10(μ-H)(μ-S)C9H6N] and […] O2^− was measured by a lucigenine-based chemiluminescence assay (C) A, cytosolic pH was determined with the pH-sensitive probe 2′,7′-bis(2-carboxyethyl)-5,6-carboxy-fluorescein.
(§5) A lucigenin-based chemiluminescence assay is routinely used in the laboratory as detailed in Clement and Pervaiz (Pervaiz S, Clement M V, Methods Enzymol. (2002) 352, 150-159). In brief, chemiluminescence was monitored using a Berthold Sirius Luminometer (Berthold Detection Systems GmbH, Bleichstralβe/Pforzheim, Germany). Data are described as relative light units/mg of protein (RLU/mg protein). Protein concentration was determined using the Coomassie Plus protein assay reagent from Pierce (Pierce Chemical Company, Rockford, Ill., USA) as detailed by the manufacturer.
(§6) This example illustrates determining whether and to what extent apoptosis induced by an osmium triangulo compound of the present invention is accompanied by an increase in intracellular ROS production. Cells were exposed to [Os3(CO)10(μ-H)(μ-S)C9H6N] for 2 h and 4 h and intracellular O2^− production was measured by a lucigenin-based chemiluminescence assay.

[6] = system: HL-60 cells; assay: Intracellular superoxide, lucigenin chemiluminescence, HL-60; assay type: cell-based, human; conditions: 12.5 and 25 μM, 2 h and 4 h (FIG. 5B)
Experimental: as §4, §5, §6

[7] = system: HL-60 cells; assay: Flow cytometric analysis of intracellular H2O2 (DCFH-DA); assay type: cell-based, human
Experimental: Cells were then loaded with DCFH-DA (5 μM) for 15 minutes and the amount of intracellular H2O2 generated was indicated by the shift in fluorescence as detected by flow cytometry.
Intracellular H2O2 was determined by staining with 2,7-dichloro-fluorescein diacetate (Molecular Probes, Eugene, Oreg.), which is oxidised to dichlorofluorescein by H2O2 described elsewhere (Hirpara, J. L., et al., J Biol. Chem. (2001) 276, 514-521). In brief, HL-60 cells were exposed to […] [Os3(CO)10(μ-H)(μ-S)C9H6N] 4 h, loaded with […] 2′,7′-dichlorofluorescein diacetate at 37° C. for […], and analysed by flow cytometry (Coulter Epics Elite ESP; excitation 488 nm). Catalase (1000 units/ml) was used to scavenge intracellular H2O2 before addition of the drugs and flow cytometric analysis of H2O2 for 4 h, followed by flow cytometry for H2O2. At least 10,000 events were analysed.

[8] = system: caspases 2, 8, 9, and 3; assay: Caspase activities (AFC substrates), HL60; assay type: cell-based, human; conditions: HL60 cells, within 6 hours; more pronounced than in Jurkat
Experimental: as §1, §2

[9] = system: cytochrome C; assay: Western blotting for cytochrome C release; assay type: cell-based, human; conditions: HL60 cells, 12.5 and 25 μM, 12 hours
Experimental: as §3
Cytochrome c release was assessed by Western blot analysis of cytosolic extracts from 30×10^6 cells as described previously (Hirpara, J. L. et al., J. Biol. Chem. (2001) 276, 514-521, incorporated herein by reference in its entirety; Pervaiz et al., 1999, supra). Cytosolic fractions were obtained and analysed by Western blotting.
Briefly, cells were washed twice with ice-cold PBS, pH 7.4, followed by centrifugation at 200×g for 5 minutes. The cell pellet was then resuspended in 600 μL of extraction buffer, containing 200 mmol/L mannitol, 68 mmol/L sucrose, 50 mmol/L PIPES-KOH, pH 7.4, 50 mmol/L KCl, 5 mmol/L EGTA, 2 mmol/L MgCl2, 1 mmol/L DTT, and protease inhibitors (Complete Cocktail; Boehringer Mannheim, Mannheim, Germany). […] Signal was detected by the Super Signal Substrate Western Blotting kit (Pierce).

[10] = system: HL-60 cells; assay: DNA fragmentation by propidium iodide flow cytometry, HL-60; assay type: cell-based, human; conditions: HL-60, 12.5 and 25 μM, 24 hours
Experimental: FIG. 4 depicts the detection of DNA Fragmentation. DNA cleavage in [Os3(CO)10(μ-H)(μ-S)C9H6N]-treated tumour cells was assessed using flow cytometric analysis. HL-60 cells were treated with 12.5 and 25 μM [Os3(CO)10(pt-H)(μ-S)C9H6N] for 24 hours, immediately fixed in ethanol, and stained with PI for DNA content analysis. SubG1 population indicates subdiplod DNA content indicative of apoptotic DNA fragmentation. Data shown are representative of at least three independent experiments.
For cellular DNA content determination, 1×10^6 cells/ml from each cell line were treated with [Os3(CO)10(μ-H)(μ-S)C9H6N]. After treatment, cells were washed twice with 1×PBS+1 FBS. Sample preparation and staining with PI for DNA content were performed as described elsewhere (32). […]
Fixed cells were left at 4° C. for 30 min, centrifuged at 1000×g for 5 min and washed once with 1×PBS+1% FBS. […] Stained cells were analyzed by flow cytometry with the excitation set at 488 nm and the emission set at 610 nm (red).
The ability of the cells to scatter light in a forward direction (FS) correlates with cell volume. Os drug-treated cells were analysed for changes in the intensity of FS as compared to untreated control cells. A total of 10,000 cells per sample were studied and data were analyzed by the WINMDI software.

[11] = system: death receptor CD95; assay: Surface expression of CD95 by flow cytometry; assay type: cell-based, human; set-up: dose or concentration left out as unconfirmed; conditions: HL60 cells, 12 hours
Experimental: FIG. 8 depicts the upregulation of Cd95 by [Os3(CO)10(μ-H)(μ-S)C9H6N] in tumour cells. HL60 cells were treated with […] [Os3(CO)10(μ-H)(μ-S)C9H6N] for 12 hours and surface expression of CD95 was analysed by flow cytometry as described in Materials and Methods. The shaded histograms show unstained cells. Mouse IgG1k was used as an isotype control. At least 10,000 events were counted, and data shown are representative of at least three separate experiments.

[12] = system: cells; assay: Intracellular pH with BCECF; assay type: cell-based; conditions: FIG. 5C
Experimental: as §4
Intracellular (pHi) was measured by loading cells with […] dye BCECF (Sigma). Briefly, cells (1×10^6) before or after exposure (2-12 h at 37° C.) to [Os3(CO)10(μ-H)(μ-S)C9H6N] was washed once with HBSS, resuspended in 0.1 ml of HBSS, and loaded with […] of 1 mM BCECF at 37° C. for 30 min in the dark. Cells were then resuspended in 0.5 ml of HBSS and analyzed using a Coulter Epics Elite ESP (Coulter, Hialeah, Fla.) flow cytometer with the excitation set at 488 nm. A minimum of 10,000 events was analyzed, and the ratio of BCECF fluorescence at 525 and 610 was used to obtain intracellular pH from a pH calibration curve. […] Immediately before flow cytometry, cells were loaded with […] nigericin (1 mM stock in absolute alcohol; Sigma), and fluorescence ratio measurements (525 nm/610 nm) of cells in nigericin-containing buffers of a range of pH were then used to relate histogram channel numbers to ipH. […]

[Os3(CO)10(μ-H)(μ-S)C9H6N]
activation of caspases 2, 8, 9 and 3 [1]: induces caspase activation
total Akt signal ([2]; HL-60, 12.5 and 25 μM, 2, 4 and 6 hours): remained almost unchanged
Akt phosphorylation ([2]; HL-60, 12.5 and 25 μM, within 4 to 6 hours of exposure): down regulation; also recorded: strong inhibition
DNA fragmentation / apoptosis with Bcl-2 overexpression [3]: inhibited
DNA fragmentation / apoptosis with Bcl-2 overexpression ([3]; listed as [Os3(CO)10(μ-H)(μ-S)C9H9N]): blocked
DNA fragmentation (sub-G1) ([3]; Jurkat Neo): induces DNA fragmentation
sub-cellular localization of Bax [4]: no significant change
intracellular O2− production [5]: early increase
intracellular O2− production [6]: early increase
intracellular H2O2 ([7]; HL-60, 12.5 and 25 μM, within 4 hours): significant surge
intracellular H2O2 in presence of catalase ([7]; HL-60, catalase 1000 U/ml): completely blocked
activation of caspases 2, 8, 9 and 3 [8]: induces caspase activation
cytochrome C release [9]: occurred in a dose dependent manner
percentage of sub-diploid DNA (sub-G1 fraction) [10]: increased significantly
surface expression of CD95 [11]: upregulation; also recorded: significant increase
cytosolic pH [12]: significant drop

Source: patent US8399447B2, “Metal triangulo compound and methods of using the same” (National University of Singapore, priority 2007, dated 2013)
